The values that follow come from US20250213701A1, “MEDICAMENT FOR TREATING HUMAN TUMOR BASED ON ERF3A-TARGETING PROTEOLYSIS MECHANISM” (SUZHOU DEGEN BIO-MEDICAL CO., LTD., priority 2022, published 2025).

In one assay the test system is HuH-7 cells. The assay can be described thus: Anti-proliferative toxicity of C63 in tumor cell lines (CCK8): HuH-7. The class given is cell-based. The following applies: Homo sapiens, 72 h, 3 days, read-out: Inhibition rate. As to the method:
Example 83: Detection of Anti-Proliferative Toxicity of C63 in Some Tumor Cell Lines
HuH-7 cells (purchased from the Cell Bank of the Chinese Academy of Sciences, Cat. No. SCSP-526) were subcultured in a culture medium (DMEM medium+[…] penicillin-streptomycin dual-antibiotic solution+10% fetal bovine serum) in an incubator at […] and 37° C.
HuH-7 cells were seeded at 5000 cells/well (90 μL) on a 96-well plate and cultured for 24 h.
10 mM compound stock solutions were prepared in DMSO.
The compound stock solution was diluted with DMSO to give DMSO solutions 1-9 at concentrations of 0 μM, 2500 μM, 500 μM, 100 μM, 20 μM, 4 μM, 0.8 μM, 0.16 μM, and 0.032 μM.
2 μL of each of solutions 1-9 was added to 98 μL of the medium to give mixed solutions 11-19 of the compound and the medium.
10 μL of each of solutions 11-19 was added to the above cell seed solution to give a total volume of 100 μL (90 μL+10 μL).
The concentrations of the compound in the wells were 0 μM, 5.0 μM, 1.0 μM, 0.2 μM, 0.04 μM, 0.008 μM, 0.0016 μM, 0.00032 μM, and 0.000064 μM. All concentrations were in triplicate.
After the above-treated cells were cultured for 3 days, 10 μL of the CCK8 solution (DOJINDO, Cat. No. PF725) was added to each well. The plate was incubated in an incubator at 37° C. for 1-4 h and then detected on a microplate reader for the reading at 450 nm.

The next assay has as its target T1, SRD5A3 (Homo sapiens, UniProt Q9H8P0).
T1 construct: The downregulation of SRD5A3 and GSPT1 (eRF3a) proteins in PC-3 and HepG2 cells by C59; endogenous in cells; host or cells: 22Rv1, PC-3, HepG2
T1 sequence (Q9H8P0 1-318): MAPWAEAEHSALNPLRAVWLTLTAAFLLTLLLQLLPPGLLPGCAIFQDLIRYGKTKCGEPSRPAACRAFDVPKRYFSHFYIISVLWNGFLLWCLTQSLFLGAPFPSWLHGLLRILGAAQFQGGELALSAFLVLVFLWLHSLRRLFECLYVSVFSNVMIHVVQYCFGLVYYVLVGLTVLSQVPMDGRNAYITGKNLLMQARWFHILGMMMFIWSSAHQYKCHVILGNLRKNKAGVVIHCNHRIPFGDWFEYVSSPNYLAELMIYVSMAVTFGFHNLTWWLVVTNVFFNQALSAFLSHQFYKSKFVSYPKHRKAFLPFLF
Kind of assay: Western blot assay in PC-3 cells: SRD5A3. It is filed as cell-based. The following applies: different concentrations at 24 h (FIG. 9). From the text:
(§1) Example 84: Western Blot Assay of Compound C59 in 22Rv1, PC-3, and HepG2 Cells
(§2) (1) Materials: 22Rv1, PC-3, and HepG2 cell, anti-SRD5A1 antibody (ab167606), anti-SRD5A2 antibody (ab124877), anti-SRD5A3 antibody (PA5-107029), anti-androgen receptor (AR) antibody (CST, No. 5153), anti-GSPT1 antibody (Abcam, ab234433), anti-GADPH antibody (CST, No. 5174), anti-c-Myc antibody (CST, No. 8583), anti-α-tublin antibody (CST, No. 2125), anti-rabbit IgG, HRP-linked antibody (CST, No. 7074), electrophoresis device and membrane transfer device (LIUYI, BEIJING; DYCZ-24DN)
(§3) Cell seeding: 22Rv1 (Cell Bank of the Chinese Academy of Sciences, TCHu100), PC-3 (Cell Bank of the Chinese Academy of Sciences, SCSP-532) and HepG2 cells (Cell Bank of the Chinese Academy of Sciences, TCHu72) were subcultured and trypsinized to prepare 6×10^5 cells/mL suspensions, seeded on 6-well plates (3 mL/well), and cultured overnight in a cell incubator at 5% CO2 and 37° C. […]
(§4) Protein quantification: The protein was quantified using a BCA protein quantification kit. […]
(§5) Western immunoblot assay (or Western blot, WB): SDS-PAGE gel at a proper concentration was prepared according to the molecular weight of the target protein: for example, the concentration of the separation gel was 8% and the concentration of the stacking gel was 5%. The loading volume was adjusted according to the protein quantification results. […]
On the technique in general: Immunoblotting shows a protein as a band on a membrane.

Another assay has as its system ARV7. The assay can be described thus: Western blot assay in 22Rv1 cells: ARV7. It is filed as cell-based, human. The following applies: different concentrations at 24 h, and 3 nM at different time points (FIGS. 7 and 8).
Excerpt: as §1, §2, §3, §4, §5

Usually inhibition stands for the relative decrease from the control value, in per cent. With `C[C@]12C=CC(=O)N[C@@H]1CC[C@@H]1[C@@H]2CC[C@]2(C)[C@@H](C(=O)Nc3cccc(N[C@@H]4CCC[C@@H](Nc5cccc6c5C(=O)N([C@H]5CCC(=O)NC5=O)C6=O)C4)c3)CC[C@@H]12` [C63, N-(3-(N—(N-(4-(2-(3S-(2,6-dioxopiperidine))-isoindole-1,3-dione))-1R,3R-cyclohexanediamine))phenyl)-3-oxo-4-aza-5α-androst-1-ene-17β-carboxamide], the inhibition at 64 pM with HuH-7 cells (0.000064 μM) came to 13.1%. For the same compound, in the assay with HuH-7 cells (0.000320 μM), the inhibition at 0.00032 µM turned out to be 59.9%. In addition, in the assay with HuH-7 cells (0.001600 μM), the inhibition at 0.0016 µM came out at 77.1%. The inhibition at 0.008 µM in the assay with HuH-7 cells (0.008000 μM) turned out to be 79.3%. In the assay on HuH-7 cells (0.040000 μM), the inhibition at 0.04 µM turned out to be 78.3%. Further, in the assay on HuH-7 cells (0.200000 μM), the inhibition at 0.2 µM stood at 78.3%. The inhibition at 1 µM in the assay on HuH-7 cells (1.000000 μM) came out at 75.1%. Also, the inhibition at 5 µM in the assay with HuH-7 cells (5.000000 μM) is 73.1%.

For the compound `C[C@]12C=CC(=O)N[C@@H]1CC[C@@H]1[C@@H]2CC[C@]2(C)[C@@H](C(=O)Nc3cccc(N[C@@H]4CCC[C@@H](Nc5cccc6c5C(=O)N(C5CCC(=O)NC5=O)C6=O)C4)c3)CC[C@@H]12` (stereo partly drawn) [C59, N-(3-(N—(N-(4-(2-(3-(2,6-dioxopiperidine))-isoindole-1,3-dione))-1R,3R-cyclohexanediamine))phenyl)-3-oxo-4-aza-5α-androst-1-ene-17β-carboxamide], the “downregulation of SRD5A3 protein (Western blot)” value at SRD5A3 is “downregulation”. In addition, in the assay on ARV7, the “downregulation of ARV7 protein (Western blot)” value is given as “downregulation”.
